Experimental data: patent US4731109A, “Herbicidal 2-haloacetanilides” (Monsanto Company, priority 1982, dated 1988)
Read-outs that look alike come from different tables or passages of the source.

Assays:
Assay type in all cases: in vivo
Bristly Starbur = experiment: Field preemergence activity in peanuts, surface applied; conditions: for inhibition at 2240 g/ha / inhibition at 3360 g/ha / inhibition at 4480 g/ha: pre-emergence, read-out: Percent Inhibition; for inhibition at 2240 g/ha: 2.24 Kg/Ha; for inhibition at 3360 g/ha: 3.36 Kg/Ha; for inhibition at 4480 g/ha: 4.48 Kg/Ha
Text: (§1) It will be understood by those skilled in the art that not all of the named weeds are selectively controlled in all of the named crops under all conditions of climate, soil, moisture and/or herbicide application modes. Selectivity data for control of the foregoing weeds in the crops soybeans, corn, cotton and peanuts from a plurality of field tests in various locations under various conditions of soil, moisture, etc., is shown collectively in Tables VIII-XI, respectively.
(§2) In Table XI is presented preemergence activity data for the compound of Example 1 against three resistant annual weeds, i.e., Texas panicum, bristly starbur and Florida pusley in peanuts for periods up to 12 WAT. The data in Table XI represent the average of three replicate runs in sandy loam soil having 1.3% organic matter, 79.2% sand and 10% clay; herbicide surface applied.

peanuts = experiment: as above; conditions: pre-emergence, read-out: Percent Inhibition; for inhibition at 2240 g/ha: 2.24 Kg/Ha; for inhibition at 3360 g/ha: 3.36 Kg/Ha; for inhibition at 4480 g/ha: 4.48 Kg/Ha
Text: as §1, §2

Florida Pusley = experiment: as above; conditions: for inhibition at 2240 g/ha: 2.24 Kg/Ha; for inhibition at 4480 g/ha: 4.48 Kg/Ha
Text: as §1, §2

Morningglory = experiment: Field tests, selectivity; conditions: in corn
Text: (§3) In the discussion and tables of data below, reference is made to herbicide application rates symbolized as "GR15 " and "GR85 "; these rates are given in kilograms per hectare (kg/ha) which are convertible into pounds per acre (lbs/A) by dividing the kg/ha rate by 1.12.
(§4) A further guide to the effectiveness of a chemical as a selective herbicide is the "selectivity factor" ("SF") for a herbicide in given crops and weeds. The selectivity factor is a measure of the relative degree of crop safety and weed injury and is expressed in terms of the GR15 /GR85 ratio, i.e., the GR15 rate for the crop divided by the GR85 rate for the weed, both rates in kg/ha (lb/A). In the tables below, selectivity factors are shown in parenthesis following the GR85 rate for each weed; the symbol "NS" indicates "non-selective". Marginal or undetermined selectivity is indicated by a dash (--).
as §1

[1] = test system: crabgrass (smooth and hairy); experiment: Field tests, selectivity; conditions: in cotton, 7 WAT
Text: as §3, §4, §1

Yellow foxtail = experiment: Field tests, selectivity; conditions: in soybeans, 6 WAT
Text: as §3, §4, §1

Lambsquarters = experiment: Field tests, selectivity; conditions: in soybeans, 6 WAT
Text: as §3, §4, §1

Pennsylvania smartweed = experiment: Field tests, selectivity; conditions: in soybeans, P.P.I., 8 WAT
Text: as §3, §4, §1

purple nutsedge = experiment: Field tests, selectivity; conditions: in cotton
Text: as §3, §4, §1

soybeans = experiment: Field tests, selectivity
Text: as §3, §4, §1

prickly sida = experiment: Field tests, selectivity; conditions: in cotton
Text: as §3, §4, §1

Cocklebur = experiment: Field tests, selectivity; conditions: in corn
Text: as §3, §4, §1

goosegrass = experiment: Field tests, selectivity; conditions: in cotton, P.P.I., 7 WAT
Text: as §3, §4, §1

cotton = experiment: Field tests, selectivity
Text: as §3, §4, §1

purslane = experiment: Field tests, selectivity; conditions: in cotton, S.A., 9 WAT
Text: as §3, §4, §1

corn = experiment: Field tests, selectivity
Text: as §3, §4, §1

[2] = test system: annual grasses, annual broadleafs and perennials; experiment: Other tests, preemergence selective control or suppression of weeds
[3] = pre-emergence, 4 WAT, read-out: Percent Inhibition
[4] = pre-emergence, 8 WAT, read-out: Percent Inhibition

In the case of `CCOCN(C(=O)CCl)c1c(C)cccc1C(F)(F)F` [Example 1, N-(ethoxymethyl)-2'-trifluoromethyl-6'-methyl-2-chloroacetanilide], the “control” value (Bristly Starbur; 4.48 kg/ha, 12 WAT) was “complete control”, the inhibition at 2240 g/ha (Bristly Starbur; 8 WAT) was 78% and the inhibition at 2240 g/ha (Bristly Starbur; 12 WAT) was 40%. It also gave an inhibition at 3360 g/ha (Bristly Starbur; 8 WAT) of 85%, an inhibition at 3360 g/ha (Bristly Starbur; 12 WAT) of 60% and an inhibition at 4480 g/ha (Bristly Starbur; 8 WAT) of 95%. It also gave an inhibition at 4480 g/ha (Bristly Starbur; 12 WAT) of 100%, an inhibition at 2240 g/ha (peanuts; 4 WAT) of 5% and an inhibition at 2240 g/ha (peanuts; 8 WAT) of 0%. The inhibition at 2240 g/ha (peanuts; 12 WAT) was 0%, the inhibition at 3360 g/ha (peanuts; 4 WAT) was 10% and the inhibition at 3360 g/ha (peanuts; 8 WAT) was 0%. It also gave an inhibition at 3360 g/ha (peanuts; 12 WAT) of 0%, an inhibition at 4480 g/ha (peanuts; 4 WAT) of 17% and an inhibition at 4480 g/ha (peanuts; 8 WAT) of 7%. For the same compound, the inhibition at 4480 g/ha (peanuts; 12 WAT) was 0%, the “control” value (Florida Pusley; 4.48 kg/ha, 12 WAT) was 95% and the inhibition at 2240 g/ha (Florida Pusley; [3]) was 0%. For the same compound, the inhibition at 2240 g/ha (Florida Pusley; [4]) was 90%, the inhibition at 3360 g/ha (Florida Pusley; pre-emergence, 3.36 Kg/Ha, 4 WAT, read-out: Percent Inhibition) was 0% and the inhibition at 4480 g/ha (Florida Pusley; [3]) was 0%. The inhibition at 4480 g/ha (Florida Pusley; [4]) was 95%, the inhibition at 4480 g/ha (Florida Pusley; pre-emergence, 12 WAT, read-out: Percent Inhibition) was 95% and the GR85 (Morningglory; P.P.I., 3 WAT) was greater than 4.5 kg/ha. It also gave a GR85 (Morningglory; P.P.I., 6 WAT) greater than 4.5 kg/ha, a GR85 (Morningglory; S.A., 3 WAT) greater than 4.5 kg/ha and a GR85 (Morningglory; S.A., 6 WAT) greater than 4.5 kg/ha. For the same compound, the suppression (Morningglory; Table IX) was “suppression of these weeds was exhibited”, the GR85 ([1]; P.P.I.) was 1.1 kg/ha and the GR85 ([1]; S.A.) was less than 1.1 kg/ha. For the same compound, the “S.F. (GR15/GR85)” value ([1]; S.A.) was greater than 1, the GR85 (Yellow foxtail; P.P.I.) was less than 1.12 kg/ha and the “S.F. (GR15/GR85)” value (Yellow foxtail; P.P.I.) was greater than 1. For the same compound, the GR85 (Yellow foxtail; S.A.) was 1.1 kg/ha, the “S.F. (GR15/GR85)” value (Yellow foxtail; S.A.) was 2 and the GR85 (Lambsquarters; P.P.I.) was 2.8 kg/ha. For the same compound, the GR85 (Lambsquarters; S.A.) was 2.5 kg/ha, the “S.F. (GR15/GR85)” value (Lambsquarters; S.A.) was 1 and the GR85 (Pennsylvania smartweed) was 2.5 kg/ha. The “S.F. (GR15/GR85)” value (Pennsylvania smartweed) was 2, the GR85 (purple nutsedge; P.P.I., 6 WAT) was 4.2 kg/ha and the GR85 (purple nutsedge; S.A., 6 WAT) was 1.7 kg/ha. For the same compound, the “S.F. (GR15/GR85)” value (purple nutsedge; S.A., 6 WAT) was 2, the GR85 (purple nutsedge; S.A., 9 WAT) was 2.2 kg/ha and the “S.F. (GR15/GR85)” value (purple nutsedge; S.A., 9 WAT) was 1.5. For the same compound, the GR15 (soybeans; Soybeans/Giant foxtail, P.P.I., 3 WAT) was greater than 4.5 kg/ha, the GR15 (soybeans; Soybeans/Giant foxtail, P.P.I., 5 WAT) was greater than 4.5 kg/ha and the GR15 (soybeans; Soybeans/Giant foxtail, S.A., 3 WAT) was greater than 4.5 kg/ha. It also gave a GR15 (soybeans; Soybeans/Lambsquarters, P.P.I., 6 WAT) of 1.4 kg/ha, a GR15 (soybeans; Soybeans/Lambsquarters, S.A., 6 WAT) of 2.5 kg/ha and a GR15 (soybeans; Soybeans/Pennsylvania Smartweed, P.P.I., 8 WAT) of 4.5 kg/ha. The GR15 (soybeans; Soybeans/Yellow foxtail, P.P.I., 6 WAT) was 1.4 kg/ha, the GR15 (soybeans; Soybeans/Yellow foxtail, S.A., 6 WAT) was 2.5 kg/ha and the GR85 (prickly sida; P.P.I., 6 WAT) was 4.8 kg/ha. For the same compound, the GR85 (prickly sida; S.A., 6 WAT) was 3.1 kg/ha, the “S.F. (GR15/GR85)” value (prickly sida; S.A., 6 WAT) was 1 and the GR85 (prickly sida; S.A., 9 WAT) was 4.8 kg/ha. For the same compound, the GR85 (Cocklebur; P.P.I., 3 WAT) was greater than 4.5 kg/ha, the GR85 (Cocklebur; P.P.I., 6 WAT) was greater than 4.5 kg/ha and the GR85 (Cocklebur; S.A., 3 WAT) was greater than 4.5 kg/ha. For the same compound, the GR85 (Cocklebur; S.A., 6 WAT) was greater than 4.5 kg/ha, the suppression (Cocklebur; Table IX) was “suppression of these weeds was exhibited” and the GR85 (goosegrass) was less than 1.1 kg/ha. The control (goosegrass) was “marginal or indeterminate”, the GR15 (cotton; Cotton/Crabgrass, P.P.I., 7 WAT) was 0.84 kg/ha and the GR15 (cotton; Cotton/Crabgrass, S.A., 7 WAT) was 1.4 kg/ha. For the same compound, the GR15 (cotton; Cotton/Goosegrass, P.P.I., 7 WAT) was 0.84 kg/ha, the GR15 (cotton; Cotton/Prickly sida, P.P.I., 6 WAT) was 3.4 kg/ha and the GR15 (cotton; Cotton/Prickly sida, S.A., 6 WAT) was 3.6 kg/ha. For the same compound, the GR15 (cotton; Cotton/Prickly sida, S.A., 9 WAT) was 3.4 kg/ha, the GR15 (cotton; Cotton/Purple nutsedge, P.P.I., 6 WAT) was 3.4 kg/ha and the GR15 (cotton; Cotton/Purple nutsedge, S.A., 6 WAT) was 3.6 kg/ha. The GR15 (cotton; Cotton/Purple nutsedge, S.A., 9 WAT) was 3.4 kg/ha, the GR15 (cotton; Cotton/Purslane, S.A., 9 WAT) was 3.4 kg/ha and the GR85 (purslane) was 2.0 kg/ha. For the same compound, the “S.F. (GR15/GR85)” value (purslane) was 1.5, the GR15 (corn; Corn/Cocklebur, P.P.I., 3 WAT) was 4.8 kg/ha and the GR15 (corn; Corn/Cocklebur, P.P.I., 6 WAT) was 4.8 kg/ha. The GR15 (corn; Corn/Cocklebur, S.A., 3 WAT) was greater than 4.5 kg/ha, the GR15 (corn; Corn/Cocklebur, S.A., 6 WAT) was greater than 4.5 kg/ha and the GR15 (corn; Corn/Giant foxtail, P.P.I., 6 WAT) was 4.8 kg/ha. For the same compound, the GR15 (corn; Corn/Giant foxtail, P.P.I., 6.5 WAT) was greater than 6.7 kg/ha, the GR15 (corn; Corn/Giant foxtail, S.A., 6 WAT) was 4.5 kg/ha and the GR15 (corn; Corn/Giant foxtail, S.A., 6.5 WAT) was greater than 7.8 kg/ha. For the same compound, the GR15 (corn; Corn/Morningglory, P.P.I., 3 WAT) was 4.8 kg/ha, the GR15 (corn; Corn/Morningglory, P.P.I., 6 WAT) was 4.8 kg/ha and the GR15 (corn; Corn/Morningglory, S.A., 3 WAT) was greater than 4.5 kg/ha. For the same compound, the GR15 (corn; Corn/Morningglory, S.A., 6 WAT) was greater than 4.5 kg/ha, the “preemergence selective control or suppression of weeds” value ([2]; in soybeans, corn, cotton, peanuts, beans, potatoes, tree fruits, turf grasses) was “effectiveness for premergence selective control or suppression” and the “competition from seedling johnsongrass, Texas panicum, sandbur, shattercane, Florida beggarweed, lambsquarters, ragweed, prickley sida and smartweed” value ([2]; in vivo) was “reduces competition”.
